# System: CN0375-F725-PDC KRAS spheroid viability
# Assay: Anticancer human tumor CN0375-F725-PDC patient-derived colon carcinoma cell line growth inhibition [KRAS2]
# Details: spheroids with HUVEC and MSC; for IC50: curve of first compound; for viability, T/C: stronger effect = lower value
# Excerpt: Multicellular complex tumor spheroid response to RAS pathway inhibitors in combination with a targeted agents in patient-derived cell lines with oncogenic KRAS variants from multiple cancer types
# A high-throughput screen of multi-cell type tumor spheroids was designed to identify active combinations of targeted small molecules and KRAS pathway inhibitors. Complex spheroids include a stromal component modeled by human endothelial cells (HUVEC) and fibroblasts modeled by human mesenchymal stem cells (MSCs). The concentration ranges selected for each drug and investigational agent were based upon clinically achievable concentrations if the clinical Cmax of the agent was known.
# Compounds. The drugs and investigational agents: BI-3406 (NSC825286), BAY-293 (NSC824723), batoprotafib (TNO155; NSC825523), sotorasib (AMG 510; NSC818433), MRTX1257 (NSC819558), elimusertib (BAY 1895344; NSC800525), molibresib (GSK525762; NSC774829), temuterkib (LY3214996; NSC803410), venetoclax (NSC766270), alisertib (NSC759677), olaparib (NSC753686), talazoparib (NSC767125), erdafitinib (NSC781556), ipatasertib (NSC767898), cabozantinib (NSC761068), nintedanib (NSC756659), abemaciclib (NSC768073), docetaxel (NSC628503), trametinib (NSC758246), and sapanisertib (NSC764658) were obtained from the National Cancer Institute (NCI) Developmental Therapeutics Program Chemical Repository. The FDA-approved anticancer drug set is available from the Developmental Therapeutics Program. […] The stock solutions were prepared in dimethyl sulfoxide (DMSO, Sigma-Aldrich, St. Louis, MO, cat. D2650) at 800-fold the tested concentration and stored at -70 degrees C prior to their use. All drugs and investigational agents were tested over a range starting from a high concentration at or near the clinical Cmax and decreasing in half-log increments. If the clinical Cmax for an agent had not been determined, the highest concentration tested was 10 microM.
# Cell Culture. All cells were maintained in an incubator at 37 degrees C and 5% CO2 with 95% humidity. The PDC lines were cultured according to standard operating procedures established by the NCI PDMR (https://pdmr.cancer.gov/sops/default.htm). Briefly, all PDCs were thawed and cultured in Matrigel-coated flasks prepared with a working solution of 1X Ham's F-12 nutrient mix, without supplementation (Invitrogen, Waltham, MA, cat. 11765054), 100 U/mL penicillin-streptomycin (Invitrogen, cat. 15140122), and 2.5% Matrigel (Corning Inc., Corning, NY, cat. 354248) for the first three passages. All PDCs were cultured in complete DMEM/F-12 media containing advanced DMEM/F-12 (Invitrogen, cat. 12634028), 4.9% defined fetal bovine serum, heat inactivated (HyClone Laboratories Inc., Logan, UT, cat. SH30070.03HI), 389 ng/mL hydrocortisone (Sigma-Aldrich, cat. H4001), 9.7 ng/mL human EGF recombinant protein (Invitrogen, cat. PHG0313), 23.4 microg/mL adenine (Sigma-Aldrich, cat. A2786), 97.3 U/mL penicillin-streptomycin (Invitrogen, cat. 15140122), 1.9 mM L-glutamine (Invitrogen, cat. 25030081), and 9.7 microM Y-27632 dihydrochloride (Tocris Bioscience, Bristol, United Kingdom, cat. 1254). The PDCs were cultured in complete DMEM/F12 media without 9.7 microM Y-27632 dihydrochloride for at least two passages prior to the screen. The established cell line HOP-62 was cultured in RPMI 1640 medium, HEPES (Invitrogen, cat. 22400105) with 10% defined fetal bovine serum (HyClone Laboratories Inc., cat. SH30070.03) and 2 mM L-glutamine (Invitrogen, cat. 25030081). The pooled donor HUVEC were cultured in endothelial cell growth medium 2 (PromoCell, Heidelberg, Germany, cat. C-22011) and the hMSC were cultured in mesenchymal stem cell growth medium 2 (PromoCell, cat. C-28009). For all experiments, HUVEC and hMSC were used at passages </=5, while the malignant cell lines were used at passages </=15. […]
# 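Note: spheroids exposed to agents for 7 days.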
smiles,measurement,setting,value
CC(C)n1nc(-c2ccc3oc(N)nc3c2)c2c(N)ncnc21 + COc1cc2nc(C)nc(NC(C)c3cc(N)cc(C(F)(F)F)c3)c2cc1OC1CCOC1,IC50,second compound 0.1 µM,59.1 nM
same,IC50,second compound 0.316 µM,49 nM
same,IC50,second compound 1 µM,36.5 nM
same,IC50,second compound 3.16 µM,25.9 nM
same,IC50,second compound 10 µM,< 0.316 nM
same,"viability, T/C","second compound 0.1 µM, first compound 0.000316 µM",101%
same,"viability, T/C","second compound 0.1 µM, first compound 0.001 µM",93.6%
same,"viability, T/C","second compound 0.1 µM, first compound 0.00316 µM",78%
same,"viability, T/C","second compound 0.1 µM, first compound 0.01 µM",70.4%
same,"viability, T/C","second compound 0.1 µM, first compound 0.0316 µM",54.5%
same,"viability, T/C","second compound 0.1 µM, first compound 0.1 µM",45.5%
same,"viability, T/C","second compound 0.316 µM, first compound 0.000316 µM",95.1%
same,"viability, T/C","second compound 0.316 µM, first compound 0.001 µM",89.7%
same,"viability, T/C","second compound 0.316 µM, first compound 0.00316 µM",77.6%
same,"viability, T/C","second compound 0.316 µM, first compound 0.01 µM",66%
same,"viability, T/C","second compound 0.316 µM, first compound 0.0316 µM",54.2%
same,"viability, T/C","second compound 0.316 µM, first compound 0.1 µM",43.7%
same,"viability, T/C","second compound 1 µM, first compound 0.000316 µM",90.5%
same,"viability, T/C","second compound 1 µM, first compound 0.001 µM",88.6%
same,"viability, T/C","second compound 1 µM, first compound 0.00316 µM",76%
same,"viability, T/C","second compound 1 µM, first compound 0.01 µM",66.4%
same,"viability, T/C","second compound 1 µM, first compound 0.0316 µM",50.2%
same,"viability, T/C","second compound 1 µM, first compound 0.1 µM",42.1%
same,"viability, T/C","second compound 3.16 µM, first compound 0.000316 µM",85.2%
same,"viability, T/C","second compound 3.16 µM, first compound 0.001 µM",80.8%
same,"viability, T/C","second compound 3.16 µM, first compound 0.00316 µM",72.9%
same,"viability, T/C","second compound 3.16 µM, first compound 0.01 µM",59%
same,"viability, T/C","second compound 3.16 µM, first compound 0.0316 µM",48.5%
same,"viability, T/C","second compound 3.16 µM, first compound 0.1 µM",40.8%
same,"viability, T/C","second compound 10 µM, first compound 0.000316 µM",13.7%
same,"viability, T/C","second compound 10 µM, first compound 0.001 µM",14.8%
same,"viability, T/C","second compound 10 µM, first compound 0.00316 µM",25.4%
same,"viability, T/C","second compound 10 µM, first compound 0.01 µM",22%
same,"viability, T/C","second compound 10 µM, first compound 0.0316 µM",18.1%
same,"viability, T/C","second compound 10 µM, first compound 0.1 µM",13.7%

# Reference: PubChem BioAssay AID1963860 (Molecular Pharmacology Branch, DTP, NCI, 2024)
